By inhibition is commonly meant how much of the control response was suppressed. A word on the IC50: it is the concentration that inhibits the measured activity by half. What is called viability is a per cent measure of how many cells are alive, often set against a control.

The target of series [1] is T1, human synthetic MSK1 (14-438-K, Millipore) (Homo sapiens, UniProt O75582).
T1 construct: purchased Millipore 14-438-K
In words: MSK1 enzymatic inhibition assay (Kinase-Glo luminescence). The series is classed as biochemical. The conditions noted are these: for inhibition at 1 µM: compound at 1 µM, read-out: MSK1 % Inhibition 1 µM; for inhibition at 10 µM: compound at 10 µM, read-out: MSK1 % Inhibition 10 µM. Here is the method:
All results are summarized in Table 1, Table 2, Table 3, Table 4 and Table 5 and on Figure 4. […]
An orthogonal luminescence-based assay Kinase-Glo® (Promega, Madison, WI, USA) was used to validate the hits, quantifying the amount of the remaining ATP in the solution following the kinase reaction. Enzymatic reactions were performed up to 4h at room temperature in presence of 3 µM ATP. All compounds were tested in quadruplicates at 1 µM and 10 µM. […] Luminescence was measured with EnVision Plate Reader (Perkin Elmer).

Series [2] deals with Balb/C mice. In words: OVA-induced asthma model, inflammatory cell recruitment in BAL. Particulars: vs vehicle-treated OVA mice. Format: in vivo. Here is the method:
We decided to use this compound in vivo together with our newly synthesized compound 49d.
Animal experimentation was conducted in accordance with the European Communities Council Directive of 24 November 1986 (86/609/EEC) and the French ministry with the approval of the Regional Ethics Committee for animal research at the Strasbourg University (Authorization number 2015080309399690). Nine week-old male Balb/c mice (Janvier) were sensitized on days 0 and 7 by i.p. injection of ovalbumin (OVA, 50 μg, grade V, Sigma-Aldrich) adsorbed on aluminium hydroxide (2 mg, Sigma-Aldrich) in PBS. Mice were challenged intranasally (i.n.) with OVA (10 μg) in 25 μL of saline on days 18–21. Control mice received i.n. administrations of saline alone. Mice received compound (10 or 30 mg/kg) in saline solution with DMSO 5% or vehicle (saline, DMSO 5%) administered i.p. 2 h before each saline or OVA challenge. Collection of the bronchoalveolar lavage (BAL) fluid was performed 24 h after the last OVA challenge. Cell counts were assessed by flow cytometry (LSRII® cytometer, BD bioscience). BAL cells were added with FCblock (5 μL, 553142, BD bioscience) in a black microplate, incubated for 20 min at room temperature. Then, marker antibodies were added: CD45-AlexaFluor700 (103128, BioLegend, San Diego, CA, USA), CD11b-APC-Cy7 (557657, BD bioscience), CD11c-FITC (557400, BD bioscience, Franklin Lakes, NJ, USA), Gr-1-Pe-eFluor610 (61-5931-82, eBioscience). Antibodies were incubated for 30 min before DAPI (5 μL, BD bioscience) addition, and flow cytometry was performed immediately. Eosinophils were selected by CD45^+, CD11b^+, CD11C^- and GR-1^- gating.

Series [3] is described as follows: WST-1 cytotoxicity test (cell viability). Particulars: human, human pulmonary (lung) fibroblasts. Background: Formazan colour is commonly taken as a measure of viable cells.
Experimental: (§1) A WST1 (Roche) reagent assay was used to determine the cytotoxicity of compounds at 24 h of incubation. […] The absorbance was measured at 450 nm.
Series [4] deals with human pulmonary fibroblasts. In words: WST-1 cytotoxicity test (cell viability). Particulars: WST-1, concentrations up to 30 µM.
Experimental: as §1
In series [5] the test system is IL-6 production. In words: Inhibition of IL-6 production (ELISA) in IL-1β-stimulated primary human lung fibroblasts. The conditions noted are these: Homo sapiens, Fibroblast; for inhibition at 10 µM: read-out: Il-6 % Inhibition 10 µM; for inhibition at 30 µM: read-out: Il-6 % Inhibition 30 µM. A general note: In an ELISA, binding on a coated surface is turned into a signal by an enzyme label.
Experimental: Primary human lung fibroblasts were cultured in DMEM/F-12 medium (Gibco Waltham, MA, USA) complemented with 10% fetal bovine serum (Gibco), penicillin (50 U/mL, Gibco), streptomycin (50 µg/mL, Gibco), L-glutamine (2 mM, Gibco), non-essential amino acids (0.1 mM, Gibco) and insulin (0.12 U/mL, Lilly, Indianapolis, IN, USA) Cells were used at passage 7.

Where [6] appears, read: 10 mg/kg i.p. 2 h before each OVA challenge.
Where [7] appears, read: 30 mg/kg i.p. 2 h before each OVA challenge.

T1 sequence (O75582 whole entry): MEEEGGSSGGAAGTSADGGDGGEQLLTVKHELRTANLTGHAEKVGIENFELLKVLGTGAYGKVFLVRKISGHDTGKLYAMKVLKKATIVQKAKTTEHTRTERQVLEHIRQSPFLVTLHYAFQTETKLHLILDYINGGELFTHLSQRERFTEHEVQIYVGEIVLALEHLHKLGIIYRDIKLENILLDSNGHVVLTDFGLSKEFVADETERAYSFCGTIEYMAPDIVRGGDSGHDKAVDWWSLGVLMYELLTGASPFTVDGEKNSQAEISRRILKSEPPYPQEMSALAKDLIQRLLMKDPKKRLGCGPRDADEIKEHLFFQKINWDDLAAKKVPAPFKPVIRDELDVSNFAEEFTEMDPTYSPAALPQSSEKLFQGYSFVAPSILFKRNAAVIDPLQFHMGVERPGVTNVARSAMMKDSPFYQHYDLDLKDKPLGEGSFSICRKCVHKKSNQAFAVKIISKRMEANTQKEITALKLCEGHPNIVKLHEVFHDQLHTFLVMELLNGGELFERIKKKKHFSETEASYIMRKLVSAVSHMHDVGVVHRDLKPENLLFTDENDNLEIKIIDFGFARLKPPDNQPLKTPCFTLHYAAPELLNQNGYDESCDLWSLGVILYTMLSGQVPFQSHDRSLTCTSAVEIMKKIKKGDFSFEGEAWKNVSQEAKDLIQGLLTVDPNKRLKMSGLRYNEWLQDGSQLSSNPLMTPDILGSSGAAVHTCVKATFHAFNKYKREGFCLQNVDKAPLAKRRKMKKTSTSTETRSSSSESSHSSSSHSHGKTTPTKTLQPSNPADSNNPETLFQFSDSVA

`Br.Nc1nc2c(-c3ccccc3Cl)cccc2[nH]1` [Compound 49d, 4-(2-Chlorophenyl)-1H-benzo[d]imidazol-2-amine Hydrobromide]: in series [1] (± Standard Deviation (n = 4)), the inhibition at 1 µM stood at 21 ± 5% and the inhibition at 10 µM is 71 ± 7%. The “fold more potent MSK1 inhibitor compared to the parent compound” value in series [1] (versus parent compound 1a) turned out to be 10 fold. For the same compound, the IC50 in series [1] (± Standard Deviation (n = 4), 8 concentrations 0.03-100 µM, read-out: MSK1 IC50) was 1600 ± 100 nM. For the same compound, in series [2] (setting [6]), the “inhibition of B cell infiltration in BAL” value stood at 47 ± 1%, the “inhibition of eosinophil infiltration in BAL” value stood at 39 ± 3% and the “inhibition of total cell infiltration in BAL” value is recorded as 33 ± 3%. For the same compound, in series [3], the viability at 24 h, 10 µM is 85 ± 13% and the viability at 24 h, 30 µM turned out to be 76 ± 12%. Besides, the “cytotoxicity (in words)” value in series [4] is given as “non-cytotoxic”. Besides, in series [5], the inhibition at 10 µM stood at 39 ± 15% and the inhibition at 30 µM amounted to 57 ± 2%.
Regarding `O=C1NCCc2[nH]c(-c3ccncc3)cc21` [PHA767491, reference compound], in series [1] (± Standard Deviation (n = 4)), the inhibition at 1 µM was 72 ± 5% and the inhibition at 10 µM was determined as 94 ± 4%. Besides, in series [2] (setting [7]), the “decrease of B cells infiltration in BAL” value was found to be 68 ± 7%, the “decrease of eosinophil infiltration in BAL” value came to 57 ± 7% and the “decrease of total cell infiltration in BAL” value is given as 51 ± 6%. Besides, in series [3], the viability at 24 h, 10 µM amounted to 95 ± 9% and the viability at 24 h, 30 µM was determined as 87 ± 7%. In series [5], the inhibition at 10 µM turned out to be 97 ± 1% and the inhibition at 30 µM is 98 ± 2%. Besides, in series [5] (read-out: Il-6 IC50 (µM), IL-1β stimulation, 0.3-30 µM, n = 4), the IC50 was 1 ± 0.1 µM.
